Literature values, collected in patent US20030143271A1, “Drug mixture with enhanced dissolution rate” (priority 2002, published 2003).

What was measured:
[1] = target: platelet cyclooxygenase-1 (Homo sapiens, UniProt P23219); details: clinical relevance not clear
[2] = system: antiplatelet effects of the aspirin; details: in combination with low-dose aspirin, healthy subjects

Chain of platelet cyclooxygenase-1 (P23219 24-599): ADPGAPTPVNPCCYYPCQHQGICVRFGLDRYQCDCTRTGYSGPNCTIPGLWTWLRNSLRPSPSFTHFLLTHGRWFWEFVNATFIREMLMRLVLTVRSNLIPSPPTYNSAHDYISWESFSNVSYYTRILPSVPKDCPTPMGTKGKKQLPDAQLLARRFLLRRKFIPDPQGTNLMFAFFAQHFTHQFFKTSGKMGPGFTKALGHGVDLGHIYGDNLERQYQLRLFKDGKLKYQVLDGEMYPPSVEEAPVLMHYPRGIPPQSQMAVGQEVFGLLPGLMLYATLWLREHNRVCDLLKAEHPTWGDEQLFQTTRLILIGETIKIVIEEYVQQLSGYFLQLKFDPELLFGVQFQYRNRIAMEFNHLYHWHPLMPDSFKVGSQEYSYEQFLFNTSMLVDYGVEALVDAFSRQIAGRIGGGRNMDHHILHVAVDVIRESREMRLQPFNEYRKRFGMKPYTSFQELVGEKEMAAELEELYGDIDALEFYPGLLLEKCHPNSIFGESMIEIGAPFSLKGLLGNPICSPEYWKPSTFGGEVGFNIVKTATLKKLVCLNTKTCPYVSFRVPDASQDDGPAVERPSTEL

| Structure (SMILES) | effect on the antiplatelet activity of aspirin [1] | effect on antiplatelet effects of aspirin [2] |
| --- | --- | --- |
| CS(=O)(=O)c1ccc(C2=C(c3ccccc3)C(=O)OC2)cc1 [rofecoxib] | some antagonistic effect | did not alter antiplatelet effects of the aspirin |
| Cc1onc(-c2ccccc2)c1-c1ccc(S(N)(=O)=O)cc1 [valdecoxib] | some antagonistic effect |  |
